# Data from the SangsterLogP compilation.
row,logP,SMILES
1,5.43,Brc1ccc(-c2cc3ccccn3c2)cc1
2,4.2,COc1ccc(-c2cc3ccccn3c2)cc1
3,5.31,Brc1cccc(-c2cc3ccccn3c2)c1
4,4.14,COc1cccc(-c2cc3ccccn3c2)c1
5,4.87,Cc1cccc(-c2ccc3cccn3c2)c1
6,5.14,Clc1cccc(-c2cc3ccccn3c2)c1
7,4.29,c1ccc(-c2cc3ccccn3c2)cc1
8,2.49,c1ccn2cccc2c1
9,5.2,Clc1ccc(-c2cc3ccccn3c2)cc1
10,4.96,Cc1ccc(-c2cc3ccccn3c2)cc1
